What was measured:
[1] = target: T1, human delta subtype 2 opioid receptor (Homo sapiens, UniProt P41143); experiment: Human Delta Opioid Receptor Binding Assay (CHO membranes, 3H-Naltrindole); details: read-out: hKi δ
T1 construct: purchased Perkin Elmer RBHODM400UA; host or cells: Chinese Hamster Ovary cells (recombinant expression)
Description: This assay is designed to test the ability of a compound to interfere with the binding of tritiated Naltrindole to the human delta subtype 2 opioid receptor. Membranes from Chinese Hamster Ovary cells expressing the human delta subtype 2 opioid receptor (Perkin Elmer #RBHODM400UA) are homogenized in assay buffer (50 mM Tris, pH 7.5 with 5 mM MgCl2) using a glass tissue grinder, Teflon pestle and a Steadfast Stirrer (Fisher Scientific). The concentration of membranes is adjusted to 100 μg/mL in assay buffer and 100 μL is dispensed into each well of the assay plate, a 96 well round bottom polypropylene plate. Compounds to be tested are solubilized in DMSO (Pierce), 10 mM, then diluted in assay buffer to 6× the desired final concentration. The ligand, ^3H-Naltrindole (Perkin Elmer #NET-1065) is also diluted in assay buffer to 6 nM. In a second 96 well round bottom polypropylene plate, known as the premix plate, 60 μL of the 6× compound is combined with 60 μL of 6 nM ^3H-Naltrindole. From this premix plate 50 μL is transferred to the assay plate containing the membranes, in duplicate. The assay plate is incubated for 30 min at room temperature. A GF/C 96 well filter plate (Perkin Elmer #6005174) is pretreated with 0.3% polyethylenimine for 30 min. The contents of the assay plate are filtered through the filter plate using a Packard Filtermate Harvester, and washed 3 times with 0.9% saline that is 4° C. The filter plate is dried, the underside sealed, and 30 μL Microscint20 (Packard #6013621) added to each well. A Topcount-NXT Microplate Scintillation Counter (Packard) is used to measure emitted energies in the range of 2.9 to 35 KeV. Results are compared to maximum binding, wells receiving no inhibitors. Nonspecific binding is determined in the presence of 1 μM unlabelled Naltrindole (Sigma #N115).

[2] = target: T2, human mu opioid receptor (Homo sapiens, UniProt P35372); experiment: Human Mu Opioid Receptor Binding Assay (CHO membranes, 3H-Damgo); details: read-out: hKi μ
T2 construct: purchased Perkin Elmer RBHOMM400UA; host or cells: Chinese Hamster Ovary cells (recombinant expression)
T2 sequence (P35372 whole entry): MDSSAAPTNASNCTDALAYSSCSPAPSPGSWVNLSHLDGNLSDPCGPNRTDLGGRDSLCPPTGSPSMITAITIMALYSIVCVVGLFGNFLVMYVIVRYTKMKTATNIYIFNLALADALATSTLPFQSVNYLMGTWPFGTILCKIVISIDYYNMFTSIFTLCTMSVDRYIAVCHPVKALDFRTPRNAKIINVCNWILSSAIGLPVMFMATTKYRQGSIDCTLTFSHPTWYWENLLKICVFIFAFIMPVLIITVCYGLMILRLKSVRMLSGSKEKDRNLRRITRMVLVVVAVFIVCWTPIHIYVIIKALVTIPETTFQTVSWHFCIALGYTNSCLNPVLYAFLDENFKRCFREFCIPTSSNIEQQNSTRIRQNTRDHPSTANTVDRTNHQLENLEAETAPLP
Description: Membranes from Chinese Hamster Ovary cells expressing the human […] opioid receptor (Perkin Elmer #RBHOMM400UA) are homogenized in assay buffer (50 mM Tris, pH 7.5 with 5 mM MgCl2) using a glass tissue grinder, Teflon pestle and a Steadfast Stirrer (Fisher Scientific). The concentration of membranes is adjusted to 300 μg/mL in assay buffer and 100 μL is dispensed into each well of the assay plate, a 96 well round bottom polypropylene plate. Compounds to be tested are solubilized in DMSO (Pierce), 10 mM, then diluted in assay buffer to 6× the desired final concentration. The ligand, ^3H-Damgo (Perkin Elmer #NET-902) is also diluted in assay buffer to 3.6 nM. In a second 96 well round bottom polypropylene plate, known as the premix plate, 60 μL of the 6× compound is combined with 60 μL of 3.6 nM ^3H-Damgo. From this premix plate 50 μL is transferred to the assay plate containing the membranes, in duplicate. The assay plate is incubated for 2 h at room temperature. A GF/C 96 well filter plate (Perkin Elmer #6005174) is pretreated with 0.3% polyethylenimine for 30 min. The contents of the assay plate are filtered through the filter plate using a Packard Filtermate Harvester, and washed 3 times with 0.9% saline that is 4° C. The filter plate is dried, the underside sealed, and 30 μL Microscint20 (Packard #6013621) added to each well. A Topcount-NXT Microplate Scintillation Counter (Packard) is used to measure emitted energies in the range of 2.9 to 35 KeV. […] Nonspecific binding is determined in the presence of 1 μM unlabelled Damgo (Tocris #1171).

T1 sequence (P41143 whole entry): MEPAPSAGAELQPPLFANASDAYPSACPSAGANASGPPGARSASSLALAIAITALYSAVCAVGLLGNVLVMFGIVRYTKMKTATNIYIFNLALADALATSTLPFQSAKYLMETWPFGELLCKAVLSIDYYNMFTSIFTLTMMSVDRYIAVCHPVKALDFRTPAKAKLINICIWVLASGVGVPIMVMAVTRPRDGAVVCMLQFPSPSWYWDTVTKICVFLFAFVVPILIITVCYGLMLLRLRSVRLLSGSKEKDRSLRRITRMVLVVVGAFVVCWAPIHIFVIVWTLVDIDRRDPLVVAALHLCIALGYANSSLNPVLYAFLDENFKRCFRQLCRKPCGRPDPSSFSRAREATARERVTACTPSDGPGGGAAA

Row | Compound | Ki [1] [nM] | Ki [2] [nM]
1 | Cc1cc(O)cc(C)c1C[C@H](N)C(=O)N(Cc1nc(-c2ccc(C(=O)O)cc2)c(C)[nH]1)C(C)C [Cpd 123] | 84 | 47
2 | Cc1cc(O)cc(C)c1C[C@H](N)C(=O)N[C@@H](CO)c1nc(-c2ccccc2)c[nH]1 [Cpd 119] | > 10000 | 185
3 | Cc1cc(O)cc(C)c1C[C@H](N)C(=O)N(C(C)C)[C@@H](Cc1cccc(CN)c1)c1nc(-c2ccccc2)c[nH]1 [Cpd 120] | 740 | 20.8
4 | Cc1cc(O)cc(C)c1C[C@H](N)C(=O)N(Cc1nc(Br)c(C)[nH]1)C(C)C [Cpd 65] | 517 | 0.36
5 | Cc1cc(O)cc(C)c1C[C@H](N)C(=O)N(Cc1nc(-c2ccc(S(C)(=O)=O)cc2)c(C)[nH]1)C(C)C [Cpd 62] | 69 | 2.4
6 | Cc1cc(O)cc(C)c1C[C@H](N)C(=O)N(Cc1ccco1)[C@@H](C)c1nc(-c2ccccc2)c[nH]1 [Cpd 54] | 172 | 1.1
7 | CC(C)N(C(=O)[C@@H](N)Cc1cccc(C(N)=O)c1)[C@@H](Cc1ccccc1)c1nc(-c2ccccc2)c[nH]1 [Cpd 136] | 1610 | 726
8 | Cc1cc(O)cc(C)c1C[C@H](N)C(=O)N(Cc1nc(-c2cccc(C(=O)N(C)C)c2)c(C)[nH]1)C(C)C [Cpd 67] | 438 | 4.5
9 | Cc1cc(C(N)=O)cc(C)c1C[C@H](N)C(=O)N(Cc1nc(-c2ccccc2)c[nH]1)C(C)C [Cpd 86] | 400 | 1
10 | Cc1cc(O)cc(C)c1C[C@H](N)C(=O)N(Cc1nc(-c2cccc(-c3ccccc3)c2)c(C)[nH]1)C(C)C [Cpd 134] | 463 | 121
11 | Cc1cc(O)cc(C)c1C[C@H](N)C(=O)N(Cc1nc(-c2cccc(O)c2)c(C)[nH]1)C(C)C [Cpd 68] | 59 | 0.6
12 | Cc1cc(O)cc(C)c1C[C@H](N)C(=O)N(Cc1nc(-c2cccc(S(C)(=O)=O)c2)c(C)[nH]1)C(C)C [Cpd 72] | 71 | 1.03
13 | Cc1cc(C(N)=O)cc(C)c1C[C@H](N)C(=O)N(Cc1ccccc1)[C@@H](C)c1nc(-c2ccc(C(F)(F)F)cc2)c(C)[nH]1 [Cpd 74] | 63 | 9.8
14 | Cc1cc(O)cc(C)c1C[C@H](N)C(=O)N(Cc1nc(-c2cc(Cl)cc(Cl)c2)c(C)[nH]1)C(C)C [Cpd 141] | 252 | 52
15 | Cc1cc(O)cc(C)c1C[C@H](N)C(=O)N(Cc1nc(-c2cccc3ccccc23)c(C)[nH]1)C(C)C [Cpd 156] | 380 | 0.59
16 | Cc1cc(O)cc(C)c1C[C@H](N)C(=O)N(Cc1cccc2ccccc12)[C@@H](C)c1nc(-c2ccccc2)c[nH]1 [Cpd 99] | 19.3 | 16
17 | Cc1[nH]c(CN(C(=O)[C@@H](N)Cc2ccc(O)cc2)C(C)C)nc1-c1cccnc1 [Cpd 153] | > 10000 | 
18 | Cc1cc(O)cc(C)c1C[C@H](N)C(=O)N(Cc1ccccc1)[C@@H](Cc1ccccc1)c1nc(-c2ccccc2)c[nH]1 [Cpd 105] | 742 | 410
19 | Cc1cc(C(N)=O)cc(C)c1C[C@H](N)C(=O)N(Cc1ccccc1)[C@@H](COCc1ccccc1)c1nc(-c2ccccc2)c[nH]1 [Cpd 64] | 1110 | 117
20 | CC(=O)Oc1ccc(CN(C(=O)[C@@H](N)Cc2c(C)cc(O)cc2C)[C@@H](C)c2nc(-c3ccccc3)c[nH]2)cc1 [Cpd 88] | 16.2 | 5.8
21 | Cc1[nH]c(CN(C(=O)[C@@H](N)Cc2ccc(O)cc2)C(C)C)nc1-c1ccsc1 [Cpd 152] | > 10000 | 
22 | Cc1cc(O)cc(C)c1C[C@H](N)C(=O)N(Cc1ccc(N(C)C)cc1)[C@@H](C)c1nc(-c2ccccc2)cn1C [Cpd 77] | 13.5 | 1.8
23 | Cc1cc(O)cc(C)c1C[C@H](N)C(=O)N(Cc1nc(-c2cccc(C#N)c2)c(C)[nH]1)C(C)C [Cpd 60] | 114 | 2

Row | Compound | Ki [1] [nM] | Ki [2] [nM]
24 | Cc1cc(O)cc(C)c1C[C@H](N)C(=O)N(C(C)C)[C@H](C)c1nc(-c2ccc(F)cc2)c[nH]1 [Cpd 82] | 46 | 2.39
25 | Cc1cc(O)cc(C)c1C[C@H](N)C(=O)N(C(C)C)[C@@H](CC(C)C)c1nc(-c2ccccc2)c[nH]1 [Cpd 140] | 985 | 79
26 | CC(C)N(C(=O)[C@@H](N)Cc1cccc(C#N)c1)[C@@H](Cc1ccccc1)c1nc(-c2ccccc2)c[nH]1 [Cpd 157] | > 10000 | 2.2
27 | Cc1cc(O)cc(C)c1C[C@H](N)C(=O)N(Cc1nc(-c2ccc(C(N)=O)cc2)c(C)[nH]1)C(C)C [Cpd 69] | 272 | 4.4
28 | Cc1cc(O)cc(C)c1C[C@H](N)C(=O)N(Cc1cccc(Oc2ccccc2)c1)[C@@H](C)c1nc(-c2ccccc2)c[nH]1 [Cpd 98] | 54 | 48
29 | Cc1cc(O)cc(C)c1C[C@H](N)C(=O)N(CC1CCCCC1)[C@@H](C)c1nc(-c2ccccc2)c[nH]1 [Cpd 56] | 225 | 65.3
30 | COc1ccccc1-c1nc(CN(C(=O)[C@@H](N)Cc2c(C)cc(O)cc2C)C(C)C)[nH]c1C [Cpd 135] | 1040 | 7
31 | Cc1cc(C(N)=O)cc(C)c1C[C@H](N)C(=O)N(CCc1ccccc1)[C@@H](C)c1nc(-c2ccccc2)c[nH]1 [Cpd 109] | 77 | 8.2
32 | CC(C)[C@@H](c1nc(-c2ccccc2)c[nH]1)N(C(=O)[C@@H](N)Cc1cccc(C#N)c1)C(C)C [Cpd 160] | > 10000 | > 1000
33 | Cc1cc(C(N)=O)cc(C)c1C[C@H](N)C(=O)N(C1CCCCC1)[C@@H](C)c1nc(-c2ccccc2)c[nH]1 [Cpd 127] | 710 | 47
34 | Cc1cc(O)cc(C)c1C[C@H](N)C(=O)N(Cc1nc(-c2cccnc2)c(C)[nH]1)C(C)C [Cpd 124] | 1280 | 1.7
35 | COc1ccc(-c2nc(CN(C(=O)[C@@H](N)Cc3c(C)cc(O)cc3C)C(C)C)[nH]c2C)cc1 [Cpd 125] | 237 | 8.6
36 | Cc1cc(C(N)=O)cc(C)c1C[C@H](N)C(=O)N(Cc1ccccc1)[C@@H](C)c1nc(-c2ccc(F)cc2)c[nH]1 [Cpd 76] | 43.1 | 1.6
37 | Cc1cc(O)cc(C)c1C[C@H](N)C(=O)N(CC1CCN(C(=O)OCc2ccccc2)CC1)[C@@H](C)c1nc(-c2ccccc2)c[nH]1 [Cpd 53] | 96 | 13.1
38 | Cc1cc(C(N)=O)cc(C)c1C[C@H](N)C(=O)N(Cc1ccccc1)[C@@H](C)c1nc(-c2cccc(F)c2)c[nH]1 [Cpd 59] | 120 | 5.1
39 | Cc1cc(O)cc(C)c1C[C@H](N)C(=O)N(C(C)C)[C@H](c1nc(-c2ccccc2)c[nH]1)C(C)C [Cpd 162] | 173 | 7.6
40 | Cc1cc(O)cc(C)c1C[C@H](N)C(=O)N(C(C)C)[C@H](CO)c1nc(-c2ccccc2)c[nH]1 [Cpd 63] | 473 | 58
41 | Cc1cc(O)cc(C)c1C[C@H](N)C(=O)N(Cc1nc(-c2ccc(-c3ccccc3)cc2)c(C)[nH]1)C(C)C [Cpd 115] | 321 | 68
42 | Cc1cc(O)cc(C)c1C[C@H](N)C(=O)N(Cc1ccccc1)[C@H](c1nc(-c2ccccc2)c[nH]1)C(C)C [Cpd 106] | 279 | 150
43 | Cc1cc(O)cc(C)c1C[C@H](N)C(=O)N(Cc1cccc(Br)c1)[C@@H](C)c1nc(-c2ccccc2)c[nH]1 [Cpd 101] | 47 | 24
44 | Cc1cc(O)cc(C)c1C[C@H](N)C(=O)N(Cc1nc(-c2cccc(C(N)=O)c2)c(C)[nH]1)C(C)C [Cpd 73] | 151 | 1.9
45 | Cc1cc(O)cc(C)c1C[C@H](N)C(=O)N(Cc1nc(-c2ccccc2-c2ccccc2)c(C)[nH]1)C(C)C [Cpd 145] | 267 | 

Source: US10213415B2, “Compounds as opioid receptor modulators” (JANSSEN PHARMACEUTICA NV, priority 2004, dated 2019)
